Reference: patent publication US20090238760A1, “ANTISPERMATOGENIC, SPERMICIDAL AND/OR ANTIFUNGAL COMPOSITION AND METHODS OF USING THE SAME” (Research Triangle Institute, priority 2006, published 2009)
Like-named read-outs stand apart in the source and are kept apart here.

Experiments:
[1] = target: testes receptor (testis membranes); assay: Displacement of [125I]074(d) from rat testis membranes (Scatchard / displacement binding assay)
Description: • 1. […] Homogenize the tissue for 20 sec with a Polytron tissue homogenizer (probe no. PTA 10S, 12 mm) at a medium setting (4-6 on a rheostat scale of 10) or until a smooth suspension is obtained. • 4. Pour the homogenate into a chilled 50 ml, centrifuge tube, and centrifuge at 0-4° C. and 500×g ( 1540 rpm in an […]) for 10 min. • 5. Decant the supernatant into clean 10 ml, centrifuge tubes, using multiple tubes as necessary. • 6. Centrifuge the decanted supernatant at 0-4° C. and 17000×g ( 11900 rpm in a Sorvall SS-34 rotor) for 12 min. • 7. Decant and discard the supernatants. […] Perform a total protein assay on resuspended pellet. The […] assay measures the binding of a radiolabeled test compound, over a wide concentration range, to the membrane receptors in both the absence (total binding) and presence (non-specific binding) of non-radioactive compound. Calculation of the resulting assay data yields the Kd of the test compound. • 1. Label 1.2 mL polypropylene tubes in duplicate for each [^125I]074(d) standard total binding and non-specific binding (NSB) determination and place in 96-well matrix test tube racks. Label liquid scintillation vials for free radioactivity determination. • 2. Prepare dilutions of the [^125I]074(d) ranging in concentration from approximately 1 to 200 nM or other desired concentration range. Prepare cold drug at a concentration of at least 100 times the level of the highest level of radiolabeled standard (e.g. 20-40 µM) for NSB determination. • 3. Set up the assay as follows: • 4. […] Add 0.1 mL (200 μg) to each assay tube. Vortex to mix. • 5. Incubate assay at 25° C. for 2 hours while gently shaking at 30-35 rpm (e.g. Precision Scientific Reciprocal Shaker or equivalent). • 6. […] Near the end of the incubation period, place a blank wash plate in the cell harvester (model MPXR-96T, Brandel Scientific, Gaithersburg, Md.). Place cold wash buffer in the reservoir supplying the harvester. Prime the harvester with buffer. Replace the dummy filter plate with the pre-soaked plate. • 8. At the end of the incubation period, remove tubes from incubator. Place the harvester prongs into the tubes, and vacuum to deposit the reaction mixture onto the filter plate. Rinse the reaction tubes 3-4 times with cold buffer and vacuum through the filter plate. • 9. Remove the filter plate from the harvester and allow it to dry thoroughly, using a warm oven if desired. • 10. Seal the bottom of the plate. Insert the plate into the cocktail dispenser and add cocktail (Micro-Scint 20, Perkin Elmer LAS, Shelton, Conn.) to each well • 11. Seal the top of the plate. Allow the plate to sit at least one hour or overnight and then count. • 1. For each level of standard, determine the CP Ms of free (essentially equivalent to total radioactivity added), total bound, and non-specific bound (NSB) compound. • 2. Subtract the NSB CPMs from the corresponding total CP Ms for each standard level to determine specific bound for each standard level. • 3. Convert the free, specific bound and non-specific bound CPMs to a mass basis (e.g. pM) using the specific activity, counter efficiency for the isotope ( 70% for ^125I in a Packard Model 1900TR. Liquid Scintillation Analyzer) and assay dilution factor of the labeled material. • 4. For each standard level, divide the level of compound specifically bound by the corresponding free amount added. • 5. For […] analysis, perform a linear regression analysis where x=specific bound compound and y=ratio of corresponding specific bound/free compound added. • 6. The Kd=-1/slope of the line generated. • 7. For illustrative purposes, a binding isotherm graph can be generated where x=free compound and y=total bound, non-specific bound and specific bound compound. The displacement assay measures the ability of a test drug, over a wide concentration range, to compete with and displace a constant amount of a known radiolabeled drug bound to the testes receptor. Calculation of the resulting assay data yields the Ki of the test drug. • 1. […]

[2] = tested on: testes / spermatogenesis in Swiss (CD-1) mice; conditions: in words, Cook et al., cited from earlier work
[3] = tested on: testes / spermatogenesis in Swiss (CD-1) mice; assay: Spermatogenic Index test: testes weight and spermatogenic index after a single oral dose; format: in vivo, mouse; conditions: male CD-1 mice, mean ± SEM; for Spermatogenic Index: 72 h, scale 1 to 6, 5 to 6 normal, vehicle control 5.5 ± 0.16; for Testes Weight: killed 72 h later, vehicle control 204 ± 11.9
Description: The compounds of the invention were tested in mice for their effects on spermatogenesis three days after a single oral dose by the procedure described in Cook et al (J. Med. […] Compounds active in this test have been shown also to be anti-fertility compounds. Compounds were screened for antispermatogenic activity by dosing male mice on day 1 with a gavage dose of control vehicle, positive control (compound 1) or compound of the invention. At 72 h after dosing, animals were killed and the testes were excised, trimmed of fat, and weighed. One testis was examined histologically and rated for spermatogenic potential using the Spermatogenic Index [[…]. Noden, J. Cherry and […]. Reprod. […], 72, 277 (1984)], which is a semiquantitative estimate of the sperm producing ability of the testes. The index is based on histological appearance of the spermatogenic cells in the seminiferous tubules. A scale of 1 to 6 is used with 5 to 6 being the normal status. A second assessment was based on the weight of the testes. […] Compounds were given orally to 8-week old male CD-1 mice in a single dose. Seventy-two hours later the animals were killed and the testes weighed. One testis was subjected to histological analysis and scored according to the Spermatogenic Index (SI) of Fail (see Cook et ah, J. Med. […] RTI-4587-056(l), and a vehicle control group was also analyzed.

spermatogenesis = conditions: oral administration to animals; cited from earlier work
[4] = tested on: testes / spermatogenesis in rats; conditions: single oral dose of 30 mg/kg to rats, within 24 h; cited from earlier work
[5] = average Ki, 25° C., 2 hours, for 074(d) the Ki is a Kd
[6] = J. Med. Chem., 1997, 40, 2111-2112

CCN1CCC2C(C1)c1ccc(C)cc1C2c1ccc(C)cc1 (stereo not drawn) [RTI-4587-002(d)]
Ki ([1]; as stated in the text, listed as -002(d)): 6.1 µM
in vivo activity (antispermatogenic) ([2]; J. Med. Chem., 1997, 40, 2111-2112, listed as -002(d)): bioactive

CCN1CCC2C(C1)c1ccc(C)cc1C2c1ccc(C)cc1 (stereo not drawn) [RTI-4587-002(l)]
Ki ([1]; as stated in the text, listed as -002(l)): 66 µM
Ki [1, 5]: 65.6 µM
in vivo activity (antispermatogenic) ([2]; J. Med. Chem., 1997, 40, 2111-2112, listed as -002(l)): bioinactive

CCN1CCC2C(C1)c1ccc(C)cc1C2c1ccc(C(=O)O)cc1 (stereo not drawn) [RTI-4587-054(d)]
Ki [1]: ~0.54 µM
Ki [1, 5]: 0.54 µM

CCN1CCC2C(C1)c1ccc(C)cc1C2c1ccc(C(=O)O)cc1 (stereo not drawn) [RTI-4587-054(l)]
Ki [1]: ~330 µM
Ki [1, 5]: 329 µM
in vivo activity (antispermatogenic) [2, 6]: inactive

CCN1CCC2C(C1)c1ccc(C)cc1C2c1ccc(C(=O)OC)cc1 (stereo not drawn) [RTI-4587-056(d)]
Ki [1, 5]: 207 µM

CCN1CC[C@H]2[C@H](c3ccc(C(=O)OC)cc3)c3cc(C)ccc3[C@H]2C1 [RTI-4587-056(l)]
Spermatogenic Index ([3]; single oral dose 30 mg/kg, n=4): 3.69 ± 0.07
Testes Weight ([3]; single oral dose 30 mg/kg, n=4): 173 ± 8.8 mg
Ki [1, 5]: 2.7 µM

CCN1CC[C@@H]2[C@@H](c3ccc(C(=O)OC)cc3)c3cc(C)c(I)cc3[C@@H]2C1 [RTI-4587-073(d)]
Ki [1, 5]: 67.3 µM

CCN1CC[C@H]2[C@H](c3ccc(C(=O)OC)cc3)c3cc(C)c(I)cc3[C@H]2C1 [RTI-4587-073(l), (4aS, 5R, 9bS)-5-(4-Carbomethoxyphenyl)-2-ethyl-2,3,4,4a,5,9b-hexahydro-8-iodo-7-methyl-1H-indeno[1,2-c]pyridine]
Spermatogenic Index ([3]; single oral dose 1 mg/kg, n=5): 2.92 ± 0.15
Testes Weight ([3]; single oral dose 1 mg/kg, n=5): 144 ± 4.9 mg
Ki [1, 5]: 0.32 µM

CCN1CCC2C(C1)c1cc(I)c(C)cc1C2c1ccc(C(=O)O)cc1 (stereo not drawn) [RTI-4587-074(d)]
Ki [1, 5]: ~0.027 µM
Ki ([1]; average Ki, 25° C., 2 hours, for 074(d) the Ki is a Kd, listed as 074(d)): 0.027 µM
in vivo activity (antispermatogenic) [2, 6]: much greater in vivo activity

C#Cc1cc2c(cc1C)[C@@H](c1ccc(C(=O)OC)cc1)[C@@H]1CCN(CC)C[C@H]21 [RTI-4587-107, (4aS, 5R, 9bS)-5-(4-Carbomethoxyphenyl)-2-ethyl-8-ethynyl-2,3,4,4a,5,9b-hexahydro-7-methyl-1H-indeno[1,2-c]pyridine]
Spermatogenic Index ([3]; single oral dose 20 mg/kg, n=5): 1.56 ± 0.20
Testes Weight ([3]; single oral dose 20 mg/kg, n=5): 134.4 ± 7.0 mg

CCN1CC[C@H]2[C@H](c3ccc(C(=O)OC)cc3)c3cc(C)c(C#Cc4ccccc4)cc3[C@H]2C1 [RTI-4587-109, (4aS, 5R,9bS)-5-(4-Carbomethoxyphenyl)-2-ethyl-2,3,4,4a,5,9b-hexahydro-7-methyl-8-(2-phenylethynyl)-1H-indeno[1,2-c]pyridine]
Spermatogenic Index ([3]; single oral dose 20 mg/kg, n=5): 4.26 ± 0.12
Testes Weight ([3]; single oral dose 20 mg/kg, n=5): 168.1 ± 16.4 mg

CCN1CC[C@@H]2[C@@H](c3ccc(C)cc3)c3cc(C)ccc3[C@@H]2C1.Cl [Sandoz 20-438]
inhibition of spermatogenesis (spermatogenesis): reversible inhibition of spermatogenesis
weights of the testes [4]: drastically reducing
